Test results reported in patent publication US12060388B2, “Cell-penetrating peptides and methods of use thereof” (priority 2018, dated 2024).
No end group written: not given here. *: point of attachment. Biotin = O=C1N[C@H]2[C@H](CS[C@H]2CCCCC(=O)*)N1

Tests used:
[1] = system: HPV16 PsV; test: HPV16 PsV infectivity in HeLa S3 cells with chemical inhibitors; type: cell-based; settings: MOI of one, 48 h.p.i.
Experimental: 5×10^4 HeLa S3 or HaCaT cells in 12-well plates were incubated with PsVs at MOI of approximately one. The number of packaged reporter plasmids required to achieve this MOI as assessed by flow cytometry for reporter gene expression from wild-type PsV was quantified by qPCR, and an equivalent number of genomes in mutant PsV were used to infect cells. Approximately five-fold more virus was used to attain this MOI in HaCaT cells. Cells were analyzed by flow cytometry on a Stratedigm-12 flow cytometer to determine the fraction of cells displaying HcRed fluorescence 48 h.p.i. To measure dependence on retromer, 1×10^5 HeLa S3 cells in a 12-well plate were transfected […] to infection with 10 pmol siRNAs targeting Vps29 (Dharmacon, Lafayette, CO; #D-009764-03) or Vps35 (Dharmacon, #D-010894-01) by using RNAiMAX (Thermo Fisher, Waltham, MA, #13778100) according to manufacturer's protocol. Cells transfected with a 10 pmol RISC-free siRNA were used as a control. Forty-eight h.p.i., infectivity was measured by flow cytometry for reporter gene expression. […] Forty-eight h.p.i., infectivity was measured by flow cytometry for HcRed expression. […] Forty-eight h.p.i., infectivity was measured by flow cytometry for HcRed expression.

[2] = system: HPV16 PsV containing GFP11-tagged L2; test: Split GFP assay with aphidicolin, HaCaT/GFP1-10NES cells; type: cell-based; settings: 6 μM, MOI of 2000, three h.p.i.
Experimental: FIG. 12A depicts HeLa S3 cells left untreated or treated with 6 μM aphidicolin. Twenty-four h later, cells were infected at MOI of one with wild-type HPV16 PsV or PsV containing L2-GFP11-CPP or L2-CPP-GFP11. Forty-eight h.p.i., the fraction of infected cells was determined by flow cytometry for HcRed fluorescence and normalized to untreated cells infected with wild-type HPV16 PsV. FIG. 12B depicts HaCaT/GFP1-10NES cells infected at an MOI of 2000 with wild-type HPV16 PsV or PsV containing GFP11-tagged L2 in the presence of absence of 6 μM aphidicolin. Three h.p.i., cells were examined by confocal microscopy for reconstituted GFP fluorescence. Fluorescence in individual cells (˜250 for each condition) is plotted from two independent experiments. […]
Generation of stable cell lines. […] Single cells were then plated in a 96-well plate, and monoclonal cell lines were isolated and tested by infection of HPV16-CPP-GFP11 PsV at ˜2000 MOI and monitoring fluorescence. […] Images were acquired with a Leica SP5 inverted fluorescence microscope to identify cell lines expressing cytoplasmic GFP1-10NES. […] Twenty-four hours later, live cells were examined by fluorescence microscopy. […] Twenty-four h later, live cells were examined by fluorescence microscopy. As expected, fluorescence with GFP11-CD8-CIMPR was reconstituted only when the GFP1-10 segment was luminal (FIG. 8F). […]

[3] = system: wild-type HPV16 pseudovirus; test: Peptide inhibition experiment with L2-C, HeLa cells; type: cell-based; settings: 4 μg peptide, infectivity 48 hours later
Experimental: HeLa cells were treated at 37° C. with 4 μg L2-C, a peptide containing the HPV16 L2 retromer binding site and CPP or mock treated. B represents N terminal biotinylation and Am represents C-terminal amidation. Two hours later, the cells were infected for two hours at 37° C. with wild-type HPV16 pseudovirus. Cells were washed and medium was replenished with medium containing the peptide for 24 hours. Infectivity was tested 48 hours later by using flow cytometry to measure fluorescence of HcRed expressed from a plasmid encapsidated in the pseudovirus particle. Similar results were obtained in two independent experiments.
HeLa cells were left untreated or treated at 37° C. with 4 μg L2-C, a peptide containing the HPV16 L2 retromer binding site and CPP. The sequence of L2-C is as follows: B-[…]-Am, (SEQ ID NO: 533), where B represents N-terminal biotinylation and Am represents C-terminal amidation. Two hours later, the cells were infected for two hours at 37° C. with wild-type HPV16 pseudovirus. Cells were washed and medium was replenished with medium containing the peptide for 24 hours. Infectivity was tested 48 hours later by using flow cytometry to measure fluorescence of HcRed expressed from a reporter plasmid encapsidated in the pseudovirus particle, and normalized to infectivity of cells infected in the absence of peptide. Similar results were obtained in two independent experiments.

[4] = system: HaCaT cells; test: Modulation of CPP action by flanking sequences, GFP fusion proteins on HaCaT cells; type: cell-based, human
Experimental: Fusion proteins with various segments of the C-terminus of HPV16 or HPV5 L2 were added to HaCaT cells. The sequences used are as follows:
In some cases, various concentrations of fusion proteins were added to assess efficacy. In other cases, the pH of the culture medium was physiological pH 7 or adjusted to acidic pH 4 prior to peptide addition, or the cells were incubated with peptide at physiological temperature of 37° C. or at 30° C. Activity was assessed by confocal microscopy for intracellular fluorescence. In some experiments, cell surface fluorescence was extinguished by treatment with the membrane-impermeable fluorescence quencher, trypan blue.

[5] = target: T1, retromer (Vps35) (Homo sapiens, UniProt O75436+Q96QK1); test: Biotinylated peptide pull-down from HeLa S3 lysate, blot for Vps35; type: binding; settings: streptavidin pull-down
T1 construct: endogenous in cells; host or cells: HeLa S3 lysate (RIPA-MOPS buffer)
Experimental: For peptide pull-down experiments, N-terminal biotinylated L2 peptides (sequences shown in FIG. 2A) were purchased from ABClonal Science (Woburn, MA) at >95% purity. L2 wild-type was dissolved initially in 30% acetic acid and DMSO (˜70 μl each), and then dissolved in sterile deionized water with 0.01% sodium azide. L2-6A, L2-3R and L2-DM were initially solubilized in a small amount of DMSO (˜70-80 μl) and then dissolved in sterile deionized water with 0.01% sodium azide. Peptide stocks (5 mg/ml) were aliquoted and stored at −20° C. HeLa S3 cells plated in six-well plates were lysed at ˜80% confluency with 500 μl RIPA-MOPS buffer (20 mM morpholinepropanesulfonic acid [pH 7.0], 150 mM NaCl, 1% Nonidet P-40, 1 mM EDTA, 1% deoxycholic acid, 0.1% sodium dodecyl sulfate [SDS]) supplemented with protease inhibitors (1×HALT protease and phosphatase inhibitor cocktail (Thermo Scientific, Waltham, MA; #78443)). The lysate was centrifuged at 14,000 rpm for 20 min, and the supernatant was incubated with 10 μg of a biotinylated peptide for two h at 4° C. Fifty μl of streptavidin agarose beads slurry (Pierce, Rockford, IL; #20349) was added, and the mixture was gently rocked for 45 min at 4° C. […] Samples were analyzed by SDS-PAGE and immunoblotting with antibody recognizing Vps35 (Abcam, Cambridge, MA; ab57632).

Compound: C[C@H](NC(=O)Cc1cc(F)cc(F)c1)C(=O)N[C@H]1N=C(c2ccccc2)c2ccccc2N(C)C1=O [XXI]
- inhibition of wild-type and L2-Tat PsV infection ([1]; 250 nM, pretreated one h): near-complete inhibition

Compound: C[C@@]1(CO)[C@H](O)CC[C@@]2(C)[C@H]1CC[C@H]1C[C@@H]3C[C@@]12CC[C@]3(O)CO [aphidocolin, aphidicolin]
- effect on HPV infection ([1]; 6 μM, pretreated 24 h): inhibited infection
- reconstituted GFP signal [2]: did not decrease the reconstituted GFP signal

Compound: B-SPQYTIIADAGDFYLHPSYYMLRKRRKR-Am [L2-C]
- inhibition of infection by HPV16 PsV [3]: dramatic inhibition of infection

Compound: His6-GFP-linker-IPVVIIHPHDSTGDFYLHPSLHRRKRKRKYL [GFP fusion protein with HPV5 C-terminus]
- cell binding, temperature dependence ([4]; three hours, 30° C. or 37° C.): better at 30 °C than at 37 °C

Compound: His6-GFP-linker-PQYTIIADAGDFYLHPSYYMLRKRRKR [GFP-21P-CPP]
- cell binding and entry at pH 7 ([4]; three hours at 37° C.): binds

Compound: His6-GFP-linker-PQYTIIADAGDFYLHPSYYMLRKRRKRLPYFFSDVSLAA [GFP-HPV16 L2]
- cell binding and entry at pH 4 ([4]; three hours at 37° C., pH 4): well
- cell binding and entry at pH 7 ([4]; three hours at 37° C.): poorly

Compound: His6-GFP-linker-RKRRKR
- cell binding and entry at pH 7 ([4]; three hours at 37° C.): active in cell binding and internalization, but is not as efficient

Compound: L2-3R: N-terminal biotinylated C-terminal L2 peptide with the 3R mutation (Biotin-SPQYTIIADAGDFYLHPSYYMLRRR)
- retromer binding of L2 peptide in vitro [5]: did not affect retromer binding
